Assay results: patent US20010012854A1, “MULTICATALYTIC PROTEASE INHIBITORS FOR USE AS ANTI-TUMOR AGENTS” (priority 1997, published 2001)

Experiments:
[1] = system: human leukemia HL-60 cells; assay: Apoptosis in HL-60 cells (DNA fragmentation, PARP cleavage); format: cell-based
Procedure: (§1) d. Flow cytometry nuclear staining and DNA fragmentation assays. DNA content analysis using flow cytometry was performed as described previously (Nicoletti, I., et al. J. Immunol. Methods 139:271-279, 1992). To assay nuclear morphology, cells were washed with PBS, fixed with 70% ethanol for 1 h, and stained with Hoechst 33258 (1 mM) for 30 min. The nuclear morphology of cells was visualized by fluorescence microscope (OLYMPUS BH2). DNA fragmentation was assayed as described previously (Grant, S., et al. Cancer Res. 52:6270-6278, 1992).
(§2) e. Whole cell extracts and western blot assay. To prepare whole cell extracts, cells were washed with PBS, and homogenized in lysis buffer (50 mM Tris, pH 8.0, 5 mM EDTA, 150 mM NaCl, 0.5% Nonidet P-40, 0.5 mM PMSF and 0.5 mM dithiothreitol). Following 30 min rocking at 4° C., the lysates were centrifuged and the supernatants were collected as whole cell extracts. The protein samples were then analyzed by sodium dodecyl sulfate-6% polyacrylamide gel electrophoresis (20-60 μg protein per lane) followed by the enhanced chemiluminescence Western blot assay using specific antibodies to CPP32, PARP, p21, p27 or RB.
Example 1 was designed to determine if MCP is involved in the survival signaling pathway(s) and if inhibition of MCP activity induces apoptosis. Human Jurkat T cells were treated with 30 μM Compound A for 4 h. […]

[2] = system: human Jurkat T cells; assay: Apoptosis in Jurkat T cells (flow cytometry sub-G1 DNA content, DNA fragmentation); format: cell-based; settings: Jurkat T cells, 15 μM, 8 h
Procedure: (§3) c. Treatment of cells with MCP inhibitor. Cells were treated with a specified MCP Inhibitor, a standard anticancer agent (etoposide or cisplatin), or DMSO (vehicle). During this process, morphological changes and cellular detachment (for attached cell lines) were monitored. At each time point, cells were harvested, and used for measurement of apoptosis and other biochemical events. In Example 1, infra, involving YVAD-CMK, Compound A was first added to Jurkat T cells. This was followed immediately by dividing the cells into multiple tissue culture flasks. YVAD-CMK was then added to an indicated concentration.
as §1
(§4) Example 1 was designed to determine if MCP is involved in the survival signaling pathway(s) and if inhibition of MCP activity induces apoptosis. Human Jurkat T cells were treated with 30 μM Compound A for 4 h. […] Both the p112 and p115 forms of RB as p112-115/RB were combined and used as an apoptosis marker.
When human Jurkat T cells were treated with 15 μM Compound A for 8 h, there was a 23% increase in the apoptotic population with sub-G1 DNA content (FIG. 2, panels b vs. a). By comparison, when Compound B was used, only an 8%-increase in sub-G1 population was detected (FIG. 2, panels c vs. a).

[3] = system: Jurkat Human T Cell Leukemia Line; assay: Jurkat cell viability assay (XTT reduction); format: cell-based; settings: Jurkat cells, 24 hours, viability by XTT reduction, read-out: Toxicity (IC50)
Procedure: f. Cell viability assay. Jurkat cells were treated with MCP inhibitors or vehicle for 30 min. at 37° C. Next, ionomycin (1 μM) and the phorbol ester PMA (10 ng/ml) were added, together with 0.2% ethanol. After 24 h, cell viability was assessed by reduction of XTT (Sigma, X4251). To each well, 50 μl of XTT (1 mg/ml) and 25 μl PMS (Sigma 9625, 5 mM) were added. After 3 h at 37° C., the OD of each well was read at 450 nm/690 nm by a plate reader.
(§5) The rank-order potency for Jurkat cell killing precisely matched the order for MCP inhibition (Table 2, below).

[4] = system: PARP, RB and caspase-3 cleavage in Jurkat T cells; assay: Western blot of caspase-3, PARP and RB in Jurkat T cells; format: cell-based, human; settings: Jurkat T cells, 15 μM, time course up to 24 h
Procedure: as §2, §4
The ability of these three MCP inhibitors to induce changes in PARP and RB proteins in a parallel experiment was also investigated. […] This rank corresponded exactly to that of the three compounds for inhibition of the chymotrypsin-like activity in isolated proteasomes (Iqbal, M., et al. J. Med Chem. 38: 2276-2277, 1995; Iqbal, M., et al. Bioorg. Med. Chem. Lett. 6: 287-290, 1996) and in intact murine B cells (Harding, C. V., et al. J Immuno. 155: 1767-1775, 1995).

[5] = molecular target: MCP chymotrypsin-like activity (Homo sapiens, UniProt P28074); assay: Inhibition of MCP chymotrypsin-like activity; format: biochemical
Text: as §5
Inhibition of the chymotrypsin-like activity of MCP by the disclosed MCP inhibitors has been reported, but these MCP inhibitors produced relatively little inhibition on the MCP trypsin-like activity and cathepsin B, a vacuolar cysteine protease (Iqbal, M., et al. J. Med Chem. 38: 2276-2277, 1995; Iqbal, M., et al. Bioorg. Med. Chem. Lett. 6: 287-290, 1996; and Harding, C. V., et al. J. Immuno. 155: 1767-1775, 1995). Furthermore, the order of potency for inhibition of the chymotrypsin-like activity was reported to be Compound A>Compound B>Compound C by using both isolated MCP and intact murine B cells (Iqbal, M., et al. J. Med Chem. 38: 2276-2277, 1995; Iqbal, M., et al. Bioorg. Med. Chem. Lett. 6: 287-290, 1996; and Harding, C. V., et al. J. Immuno. 155: 1767-1775, 1995).

[6] = system: human breast cancer MCF-7 cells; assay: Detachment and apoptotic nuclear changes in MCF-7 cells; format: cell-based; settings: MCF-7, 24 h
Procedure: as §3, §1
(§6) Detachment was also found in at least half of human breast cancer MDA-MB-231 and MCF-7 cells, after exposure to Compound A for 24 h.

[7] = system: p21 and p27 in human breast cancer MDA-MB-231 cells; assay: Western blot of p21 and p27 levels in MDA-MB-231 cells; format: cell-based; settings: MDA-MB-231, 17 hours, concentrations up to 100 μM
Procedure: as §2
Additionally, a band of 70 kDa whih may represent ubiquinated p70 was also observed. In contrast, etoposide caused only limited accumulation of p21 (≦4-fold) and p27 (≦2-fold) at 17 hours when used at concentrations up to 100 μM.

[8] = system: Jurkat cells transfected with a control vector; assay: Apoptotic nuclear changes (Hoechst staining) in Jurkat cells transfected with control vector; format: cell-based, human; settings: 50 μM, 8 h
Procedure: (§7) b. Cell culture. Human Jurkat T and HL-60 cells were grown in RPMI 1640 (Life Technologies, Inc.) supplemented with 10% fetal calf serum (Sigma), 100 units/ml of penicillin, 100 μg/ml of streptomycin and 2mM L-glutamine (growth medium). Jurkat T. cells overexpressing the Bcl-2 oncoprotein or vector alone (provided by Dr. D. Johnson, University of Pittsburgh, Pa.) were grown in the same growth medium with […] G418. Human cancer cell lines of breast (MCF-7, MDA-MB-231), prostate (DU145, PC3) and osteosarcoma (U2-OS), obtained from American Type Culture Collection (ATCC. Rockville, Md.)), were also grown in the RPMI growth medium. Human oral (SCC-25; from ATCC) and brain (SNB-19; Welch, W. C., et al. In Vitro Cell. Dev. Biol., 31:610-616, 1995) cancer cell lines, and normal (WI-38) and SV40-transformed human fibroblasts (WI-38 VA-13; from ATCC) were grown in DMEM medium containing 10% fetal calf serum, penicillin, streptomycin and L-glutamine.
as §1
The apoptosis-inducing potency of Compound A was compared with two standard chemotherapeutic anti-cancer agents, etoposide and cisplatin. […] By comparison, treatment with 50 μM etoposide for 8 h induced only ˜47% of these cells to undergo apoptosis (FIG. 3, panels c vs. a). Treatment of 10 μM Compound A, but not etoposide or cisplatin, induced apoptosis in human prostate, breast, tongue and brain cancer cells and also in SV40 DNA virus-transformed human fibroblasts (see FIGS. 5-7).

[9] = system: human prostate cancer DU145 cells; assay: Detachment and apoptotic nuclear changes in DU145 cells; format: cell-based; settings: DU145, 16 h
Procedure: as §3, §1
Similar to PC-3, about half of human prostate cancer DU145 cells became detached after exposure to Compound A for 16 h.

[10] = system: Bcl-2-overexpressing Jurkat cells; assay: Apoptosis in Bcl-2-overexpressing Jurkat cells (nuclear staining, western blot); format: cell-based, human
Procedure: as §7, §1, §2
It has been shown that overexpression of Bcl-2 oncoprotein inhibits apoptosis in many cell systems (Miura, M., et al., J. Cell 75: 653-660, 1993). Bcl-2 expression in human Jurkat T cells for inhibition of Compound A-induced apoptosis was investigated.

[11] = system: SV40-transformed human fibroblasts (WI-38 VA13); assay: Detachment, apoptotic nuclear changes and PARP cleavage in SV40-transformed fibroblasts; format: cell-based; settings: WI-38 VA13, 10 μM, up to 22 h
Procedure: as §3, §1, §2
(§8) Whether Compound A has, any selectivity in induction of apoptosis between transformed and normal cells was investigated. Normal human fibroblast cell line (WI-38) and its SV40-transformed derivative (WI-38 VA13) were utilized. […]

[12] = system: human breast cancer MDA-MB-231 cells; assay: Detachment and apoptotic nuclear changes in MDA-MB-231 cells; format: cell-based; settings: MDA-MB-231, 24 h
Procedure: as §3, §1, §6

[13] = system: Human prostate cancer PC-3 cells; assay: Detachment and apoptotic nuclear changes in PC-3 cells; format: cell-based; settings: PC-3, 10 μM, 36 h
Procedure: as §3, §1
Human prostate cancer PC-3 cells were treated with 10 μM Compound A, etoposide, or an equal percentage of vehicle (DMSO), followed by separation of the attached and detached cell populations. Both attached and detached cell populations were then used for detection of apoptotic nuclear changes. After 36 h treatment with Compound A, ˜50% of PC-3 cells became detached.

[14] = system: Normal human fibroblast cell line (WI-38); assay: Detachment, apoptotic nuclear changes and PARP cleavage in normal fibroblasts; format: cell-based; settings: normal WI-38, 10 μM, up to 22 h
Procedure: as §3, §1, §2, §8

[15] = system: murine melanoma cell line, B16-F0; assay: In vivo B16-F0 melanoma tumor growth in C57BL mice; settings: 10 mg/kg/day, ip
Procedure: a. Materials: MCP inhibitors used for in vivo studies (Compounds D and E) were each formulated in 25% Solutol.
b. Cell line: The murine melanoma cell line, B16-F0, was grown at 37° C. in a humidified incubator, with a 95% air/5% CO2 atmosphere, in Dulbecco's modified Eagle's medium with 4.5 g/l glucose (Cellgro/Mediatech, Washington, D.C.) containing 10% fetal bovine serum (Hyclone Labs, Logan, Utah), 2 mM glutamine (GibcoBRL, Long Island, N.Y.), penicillin (100 I.U./mL) (GibcoBRL), and streptomycin (100 μg/mL) (GibcoBRL). The cells were determined to be free of mycoplasma and rodent viruses (MAP testing). Exponentially growing cells were harvested using 5 mL of warm trypsin/EDTA (0.05%, 0.5 mM)((GibcoBRL). The total volume was brought up to 10 mL with Complete Medium to neutralize trypsin and cells were counted with a hemocytometer. The cells were then collected by brief centrifugation and the cell pellet was resuspended in Phosphate Buffered Saline (GibcoBRL) to achieve the final concentration of 1×10^7 live cells/ml.
c. Animals: Female C57BL mice (20-25 g) obtained from Harlan Sprague Dawley, Indianapolis, Ind. were maintained five mice/cage and given a commercial diet and water ad libitum. […]
e. Tumor measurements: Tumors were measured using a vernier caliper every 2 to 3 days. Tumor volume was calculated using the formula: […]

CC(C)C[C@@H](C=O)NC(=O)[C@@H](CCCNC(=N)N[N+](=O)[O-])NC(=O)C(CCCCCCCCC#N)C1CCCC1 (stereo partly shown) [Compound B]
Internucleosomal fragmentation of DNA [1]: induced internucleosomal fragmentation of DNA | Increase in the apoptotic population with sub-G1 DNA content [2]: 8% | IC50 [3]: 1600 nM | Production of p85/PARP and p112-115/RB [4]: much less p85/PARP and p 112-115/RB were found before 8 h | IC50 [5]: 6 nM

COc1cc([C@@H]2c3cc4c(cc3[C@@H](O[C@@H]3O[C@@H]5CO[C@@H](C)O[C@H]5[C@H](O)[C@H]3O)[C@H]3COC(=O)[C@H]23)OCO4)cc(OC)c1O [etoposide, reference compound]
Apoptosis by nuclear staining [6]: did not induce apoptosis | Accumulation of p21 [7]: ≤ 4 fold | Accumulation of p27 [7]: ≤ 2 fold | Cells exhibiting apoptotic nuclear changes [8]: ~47% | Detached cells [9]: very little detachment | Nuclear morphology [9]: the remaining attached cells still contained normal nuclei | Effect of Bcl-2 expression on induced PARP and RB changes ([10]; 50 μM): inhibited these PARP and RB changes | Effect of Bcl-2 expression on induced apoptotic nuclear changes ([10]; etoposide treatment as in FIG. 3 (50 μM, 8 h)): blocked the apoptotic nuclear changes induced by etoposide | Detachment and apoptotic nuclear changes [11]: did not induce apoptosis in either transformed or normal WI-38 cells | Apoptosis by nuclear staining [12]: did not induce apoptosis | Detached cells [13]: Little or no detachment | Nuclear morphology (apoptotic condensation and fragmentation) [13]: all the remaining attached cells contained normal, round nuclei | Detachment and apoptotic nuclear changes [14]: did not induce apoptosis in either transformed or normal WI-38 cells

CC(C)C[C@H](NC(=O)[C@H](CCCN/C(N)=N/[N+](=O)[O-])NC(=O)C(CCCCCCCCN1C(=O)c2ccccc2C1=O)C1CCCC1)B(O)O (stereo partly shown) [E]
Melanoma tumor growth (tumor volume) [15]: inhibit melanoma tumor growth
